Where two headings read alike, the source gives them in different places.
Columns and labels:
human cadaver skin [1] = conditions: for increase in the rate of delivery of ketoprofen: electrotransport, versus control (no enhancer); for Normalized Skin Resistance: ketoprofen electrotransport, steady state, divided by control (no enhancer), 100 μA/cm^2, 32° C.
Experimental: (§1) Skin strips having a thickness of 1 mm were removed from a human cadaver with an electric dermatome. These skin strips were placed in polyethylene bags, sealed and placed in a refrigerator at 4° C. for temporary storage. Prior to use in an electrotransport cell, the skin strips were placed in 1 liter beakers containing water at 60° C. for about 90 seconds, and gently stirred. The skin strips were then removed, and placed onto the absorbent side of a piece of BENCHKOTE fabric with their dermis side down. The epidermis was removed from each strip with a round-tip spatula, and flat tipped tweezers to retain the dermis. Each epidermis, stratum corneum side up, was then transferred to a 5 cm deep PYREX glass tray filled with water. Each floating epidermis was stretched essentially flat, and then removed from the water, and 2.2 cm diameter disks of each epidermis were punched out of areas having no observable surface damage. The disks were stored at 4° C. in a sealed container with water droplets to maintain their moisture.
(§2) The disks were mounted between the donor and receptor compartments, with the stratum corneum side facing the donor compartment, of a 2-compartment polycarbonate electrotransport permeation cell. The volume of each compartment was about 2 mL and the area between the two compartments, ie, the exposed area for transport, was about 1.26 cm^2.
(§3) An aqueous solution of the drug being transdermally delivered and the selected permeation enhancer composition, if any, was placed in the donor compartment. Dulbecco's phosphate buffered saline (approximately 0.15N NaCl, pH 7.0) was placed in the receptor compartment.
(§4) The rate of transport of drug and the electrical resistance of the skin were monitored throughout the experiments while applying an electric current.
(§5) The cell was maintained at 32° C. by a Haake Model D1 heating block/water bath. The electrodes were connected to a galvanostat, which applied a constant current of 126 μA (current density of 100 μA/cm^2) and monitored the voltage drop across the skin by placing two Ag/AgCl junction reference electrodes, one each in the donor and receptor solutions, and measuring the voltage difference (AV) between the electrodes.
(§6) The resistance of the skin (R) was obtained from Ohm's law:
(§7) where i equals the applied current (ie, 126 μA).
The following experiments were conducted to assess the effect of one composition of the invention, containing ethanol and dodecanol, on the transdermal delivery of sodium ketoprofen (ketoprofen anions) by electrotransport from a cathodic electrode. The electrotransport delivery of ketoprofen in the presence of various enhancers was assessed side-by-side for comparative purposes. The enhancers used were as follows: (i) ethanol alone; (ii) dodecanol alone; (iii) no enhancer; (iv) ethanol and dodecanol. […] A silver chloride composite polymer electrode (cathode) was placed in the donor compartment, and a silver foil electrode (anode) was placed in the receptor compartment.
Each experiment was started by connecting the power source to the electrodes, and samples were automatically taken from the receptor compartment every one to two hours, except for overnight experimentation, using an Isco Model 2230 autosampler and a metering pump. The concentration of ketoprofen in the samples was determined by high performance liquid chromatography (HPLC) using a Shimadzu Model SCL-6B chromatograph. Each run was conducted in triplicate, including the control, to minimize errors. All cells were set-up with tissue from the same cadaver. The selected permeation enhancer composition was placed in the donor compartment, while the control cell's donor compartment contained no enhancer.

human cadaver skin [2] = conditions: for Normalized Skin Resistance (after 5 hrs): metoclopramide electrotransport, n=3, 100 μA/cm^2, 32° C.
Experimental: as §1, §2, §3, §4, §5, §6, §7
The experimental conditions were identical to those described in Example 1, except an aqueous solution of metoclopramide HCl, instead of sodium ketoprofen, was placed in the donor compartment. In addition, the silver chloride cathode was placed in the receptor compartment and the silver foil anode was placed in the donor compartment since metoclopramide ions are cationic as opposed to ketoprofen ions which are anionic. The concentration of metoclopramide in the donor solution was about 100 mg metoclopramide/mL, and saline pH 7 was placed in the receptor compartment. The system was maintained at 32° C. and a constant electric current of 100 μA/cm^2 was applied throughout the procedure.
The mass flux and skin resistance values were normalized versus the control. […] The skin resistance (which was calculated from the measured cell voltage ΔV using Ohm's law, […]) was also normalized with respect to the value obtained by electrotransport of metoclopramide in the absence of any permeation enhancer (rightmost column).

skin [3] = conditions: relative to sotalol alone (control); no current; cited from earlier work
skin [4] = conditions: cited from earlier work; for rate of electrotransport of sotalol (in words): compared to electrotransport without DDAA or azone (control)

With CCCCCCCCCCCCO [Dodecanol, dodecanol] the “reduction in skin resistance” value (human cadaver skin [1]) was ~60%, the “increase in the rate of delivery of ketoprofen” value (human cadaver skin [1]) was 93% and the “Normalized Skin Resistance” value (human cadaver skin [1]; enhancer dodecanol <100 mM) was 0.39.

In the case of CCO [Ethanol, ethanol], the “reduction in skin resistance” value (human cadaver skin [1]) is reported as > 50%, the “increase in the rate of delivery of ketoprofen” value (human cadaver skin [1]) is reported as 24% and the “Normalized Skin Resistance” value (human cadaver skin [1]; enhancer 25% v/v ethanol) is reported as 0.47. For the same compound, the “effect of difference in ethanol concentration (25% v/v alone, 20% v/v with dodecanol)” value (human cadaver skin [1]; in words, said to be confirmed in Example 2) was “does not significantly alter its effect”, the “mass flux of metoclopramide (in words)” value (human cadaver skin [2]) was “not to enhance, but to actually decrease, the mass flux of metoclopramide” and the “Normalized Skin Resistance (after 5 hrs)” value (human cadaver skin [2]; ethanol 10 wt %, versus no enhancer) was 1.32. For the same compound, the “Normalized Skin Resistance (after 5 hrs)” value (human cadaver skin [2]; ethanol 20 wt %, versus no enhancer) was 1.13, the “Normalized Skin Resistance (after 5 hrs)” value (human cadaver skin [2]; ethanol 30 wt %, versus no enhancer) was 1.26 and the “resistance of the skin during electrotransport delivery of metoclopramide (in words)” value (human cadaver skin [2]; ethanol alone, versus no enhancer) was “increase the resistance of the skin”.

For CCCCCCCCCCCCN1CCCCCC1=O [azone], the “rate of passive permeation of sotalol (in words)” value (skin [3]) is given as “increase the rate of passive permeation” and the “rate of electrotransport of sotalol (in words)” value (skin [4]) is given as “actually reduced the rate of electrotransport delivery of the agent”.

In the case of CC(C)NCC(O)c1ccc(NS(C)(=O)=O)cc1 (centres unmarked) [sotalol], the “rate of delivery of sotalol with passage of an electric current (in words)” value (skin [4]; compared to its passive rate (control)) is listed as “increase the rate of delivery of sotalol compared to that of its passive rate”.

In the case of N, N-dimethylamino acetate [DDAA], the “rate of passive permeation of sotalol (in words)” value (skin [3]) is listed as “increase the rate of passive permeation” and the “rate of electrotransport of sotalol (in words)” value (skin [4]) is listed as “actually reduced the rate of electrotransport delivery of the agent”.
